According to US20150105252A1, “SUBSTITUTED PYRAZOLES AS HERBICIDES” (E I DU PONT DE NEMOURS AND COMPANY, priority 2013, published 2015):

What was measured:
[1] = tested on: chamomile; test: Test D postemergence; assay type: in vivo, Matricaria inodora; conditions: scale 0 to 100
Procedure, shortened: (§1)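 Formulation was a non-phytotoxic solvent mixture plus surfactant, applied either to soil at planting (silt loam, preemergence) or to foliage of 2–18 cm plants (postemergence). Visual evaluation versus controls followed at 14–21 days, scored 0–100.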

[2] = tested on: radish, wild; test: Test D postemergence; assay type: in vivo, Raphanus raphanistrum; conditions: scale 0 to 100
Procedure, shortened: as §1

[3] = tested on: bluegrass; test: Test D postemergence; assay type: in vivo, Poa annua; conditions: scale 0 to 100
Procedure, shortened: as §1

[4] = tested on: field violet; test: Test D preemergence; assay type: in vivo, Viola arvensis; conditions: for Plant response rating, Field Violet: Preemergence, scale 0 to 100
Procedure, shortened: as §1

[5] = tested on: buckwheat, wild; test: Test D preemergence; assay type: in vivo, Polygonum convolvulus; conditions: for Plant response rating, Buckwheat, Wild: Preemergence, scale 0 to 100
Procedure, shortened: as §1

[6] = tested on: blackgrass; test: Test D postemergence; assay type: in vivo, Alopecurus myosuroides; conditions: scale 0 to 100
Procedure, shortened: as §1

[7] = tested on: galium; test: Test D postemergence; assay type: in vivo, Galium aparine; conditions: scale 0 to 100
Procedure, shortened: as §1

[8] = tested on: pigweed; test: Test D postemergence; assay type: in vivo, Amaranthus retroflexus; conditions: scale 0 to 100
Procedure, shortened: as §1

[9] = tested on: chamomile; test: Test D preemergence; assay type: in vivo, Matricaria inodora; conditions: for Plant response rating, Chamomile: Preemergence, scale 0 to 100
Procedure, shortened: as §1

[10] = tested on: speedwell; test: Test D preemergence; assay type: in vivo, Veronica persica; conditions: for Plant response rating, Speedwell: Preemergence, scale 0 to 100
Procedure, shortened: as §1

[11] = tested on: ryegrass, Italian; test: Test D preemergence; assay type: in vivo, Lolium multiflorum; conditions: for Plant response rating, Ryegrass, Italian: Preemergence, scale 0 to 100
Procedure, shortened: as §1

[12] = tested on: bromegrass, downy; test: Test D postemergence; assay type: in vivo, Bromus tectorum; conditions: scale 0 to 100
Procedure, shortened: as §1

[13] = tested on: barley, spring; test: Test D preemergence; assay type: in vivo, Hordeum vulgare; conditions: for Plant response rating, Barley, Spring: Preemergence, scale 0 to 100
Procedure, shortened: as §1

[14] = tested on: barley, winter; test: Test D preemergence; assay type: in vivo, Hordeum vulgare; conditions: for Plant response rating, Barley, Winter: Preemergence, scale 0 to 100
Procedure, shortened: as §1

[15] = tested on: canarygrass; test: Test D preemergence; assay type: in vivo, Phalaris minor; conditions: for Plant response rating, Canarygrass: Preemergence, scale 0 to 100
Procedure, shortened: as §1

[16] = tested on: pigweed; test: Test D preemergence; assay type: in vivo, Amaranthus retroflexus; conditions: for Plant response rating, Pigweed: Preemergence, scale 0 to 100
Procedure, shortened: as §1

[17] = tested on: mustard, wild; test: Test D postemergence; assay type: in vivo, Sinapis arvensis; conditions: scale 0 to 100
Procedure, shortened: as §1

[18] = tested on: lambsquarters; test: Test D postemergence; assay type: in vivo, Chenopodium album; conditions: scale 0 to 100
Procedure, shortened: as §1

[19] = tested on: bluegrass; test: Test D preemergence; assay type: in vivo, Poa annua; conditions: for Plant response rating, Bluegrass: Preemergence, scale 0 to 100
Procedure, shortened: as §1

[20] = tested on: deadnettle; test: Test D preemergence; assay type: in vivo, Lamium amplexicaule; conditions: for Plant response rating, Deadnettle: Preemergence, scale 0 to 100
Procedure, shortened: as §1

[21] = 16 g ai/ha, taken as preemergence

## CCc1cc(C(=O)NC2CC2)nn1Cc1ccnc(C(F)(F)F)c1 [Compound 76]
[1]; Postemergence, 16 g ai/ha
  Plant response rating, Chamomile: 10
[1]; Postemergence, 31 g ai/ha
  Chamomile plant response rating: 25
[1]; Postemergence, 125 g ai/ha
  Chamomile plant response rating: 50
[1]; Postemergence, 250 g ai/ha
  Chamomile plant response rating: 55
[1]; postemergence, 62 g ai/ha
  Chamomile plant response rating: 30
[2]; Postemergence, 16 g ai/ha
  Plant response rating, Radish, Wild: 5
[2]; Postemergence, 31 g ai/ha
  Radish, Wild plant response rating: 10
[2]; Postemergence, 125 g ai/ha
  Radish, Wild plant response rating: 70
[2]; Postemergence, 250 g ai/ha
  Radish, Wild plant response rating: 65
[2]; postemergence, 62 g ai/ha
  Radish, Wild plant response rating: 20
[3]; Postemergence, 16 g ai/ha
  Plant response rating, Bluegrass: 5
[3]; Postemergence, 31 g ai/ha
  Bluegrass plant response rating: 5
[3]; Postemergence, 125 g ai/ha
  Bluegrass plant response rating: 20
[3]; Postemergence, 250 g ai/ha
  Bluegrass plant response rating: 20
[3]; postemergence, 62 g ai/ha
  Bluegrass plant response rating: 10
[4]; [21]
  Plant response rating (scale 0 to 100), Field Violet: 60
[4]; 31 g ai/ha
  Plant response rating, Field Violet: 95
[4]; 62 g ai/ha
  Plant response rating, Field Violet: 100
[4]; 125 g ai/ha
  Plant response rating, Field Violet: 100
[4]; 250 g ai/ha
  Plant response rating, Field Violet: 100
[5]; [21]
  Plant response rating (scale 0 to 100), Buckwheat, Wild: 0
[5]; 31 g ai/ha
  Plant response rating, Buckwheat, Wild: 20
[5]; 62 g ai/ha
  Plant response rating, Buckwheat, Wild: 70
[5]; 125 g ai/ha
  Plant response rating, Buckwheat, Wild: 100
[5]; 250 g ai/ha
  Plant response rating, Buckwheat, Wild: 100
[6]; Postemergence, 16 g ai/ha
  Plant response rating, Blackgrass: 5
[6]; Postemergence, 31 g ai/ha
  Blackgrass plant response rating: 0
[6]; Postemergence, 125 g ai/ha
  Blackgrass plant response rating: 10
[6]; Postemergence, 250 g ai/ha
  Blackgrass plant response rating: 10
[6]; postemergence, 62 g ai/ha
  Blackgrass plant response rating: 5
[7]; Postemergence, 16 g ai/ha
  Plant response rating, Galium: 55
[7]; Postemergence, 31 g ai/ha
  Galium plant response rating: 70
[7]; Postemergence, 125 g ai/ha
  Galium plant response rating: 75
[7]; Postemergence, 250 g ai/ha
  Galium plant response rating: 95
[7]; postemergence, 62 g ai/ha
  Galium plant response rating: 75
[8]; Postemergence, 16 g ai/ha
  Plant response rating, Pigweed: 50
[8]; Postemergence, 31 g ai/ha
  Pigweed plant response rating: 55
[8]; Postemergence, 125 g ai/ha
  Pigweed plant response rating: 80
[8]; Postemergence, 250 g ai/ha
  Pigweed plant response rating: 80
[8]; postemergence, 62 g ai/ha
  Pigweed plant response rating: 65
[9]; [21]
  Plant response rating (scale 0 to 100), Chamomile: 50
[9]; 31 g ai/ha
  Plant response rating, Chamomile: 80
[9]; 62 g ai/ha
  Plant response rating, Chamomile: 95
[9]; 125 g ai/ha
  Plant response rating, Chamomile: 100
[9]; 250 g ai/ha
  Plant response rating, Chamomile: 100
[10]; [21]
  Plant response rating (scale 0 to 100), Speedwell: 100
[10]; 31 g ai/ha
  Plant response rating, Speedwell: 100
[10]; 62 g ai/ha
  Plant response rating, Speedwell: 100
[10]; 125 g ai/ha
  Plant response rating, Speedwell: 100
[10]; 250 g ai/ha
  Plant response rating, Speedwell: 100
[11]; [21]
  Plant response rating (scale 0 to 100), Ryegrass, Italian: 0
[11]; 31 g ai/ha
  Plant response rating, Ryegrass, Italian: 0
[11]; 62 g ai/ha
  Plant response rating, Ryegrass, Italian: 15
[11]; 125 g ai/ha
  Plant response rating, Ryegrass, Italian: 65
[11]; 250 g ai/ha
  Plant response rating, Ryegrass, Italian: 95
[12]; Postemergence, 16 g ai/ha
  Plant response rating, Bromegrass, Downy: 0
[12]; Postemergence, 31 g ai/ha
  Bromegrass, Downy plant response rating: 0
[12]; Postemergence, 125 g ai/ha
  Bromegrass, Downy plant response rating: 10
[12]; Postemergence, 250 g ai/ha
  Bromegrass, Downy plant response rating: 15
[12]; postemergence, 62 g ai/ha
  Bromegrass, Downy plant response rating: 5
[13]; 16 g ai/ha, taken as preemergence, 0 = no effect, 100 = complete control
  Plant response rating (scale 0 to 100), Barley, Spring: 0
[13]; 31 g ai/ha
  Plant response rating, Barley, Spring: 0
[13]; 62 g ai/ha
  Plant response rating, Barley, Spring: 10
[13]; 125 g ai/ha
  Plant response rating, Barley, Spring: 65
[13]; 250 g ai/ha
  Plant response rating, Barley, Spring: 75
[14]; [21]
  Plant response rating (scale 0 to 100), Barley, Winter: 0
[14]; 31 g ai/ha
  Plant response rating, Barley, Winter: 0
[14]; 62 g ai/ha
  Plant response rating, Barley, Winter: 15
[14]; 125 g ai/ha
  Plant response rating, Barley, Winter: 60
[14]; 250 g ai/ha
  Plant response rating, Barley, Winter: 75
[15]; [21]
  Plant response rating (scale 0 to 100), Canarygrass: 0
[15]; 31 g ai/ha
  Plant response rating, Canarygrass: 5
[15]; 62 g ai/ha
  Plant response rating, Canarygrass: 65
[15]; 125 g ai/ha
  Plant response rating, Canarygrass: 100
[15]; 250 g ai/ha
  Plant response rating, Canarygrass: 100
[16]; [21]
  Plant response rating (scale 0 to 100), Pigweed: 10
[16]; 31 g ai/ha
  Plant response rating, Pigweed: 60
[16]; 62 g ai/ha
  Plant response rating, Pigweed: 80
[16]; 125 g ai/ha
  Plant response rating, Pigweed: 100
[16]; 250 g ai/ha
  Plant response rating, Pigweed: 100
[17]; Postemergence, 16 g ai/ha
  Plant response rating, Mustard, Wild: 10
[17]; Postemergence, 31 g ai/ha
  Mustard, Wild plant response rating: 40
[17]; Postemergence, 125 g ai/ha
  Mustard, Wild plant response rating: 100
[17]; Postemergence, 250 g ai/ha
  Mustard, Wild plant response rating: 100
[17]; postemergence, 62 g ai/ha
  Mustard, Wild plant response rating: 70
[18]; Postemergence, 16 g ai/ha
  Plant response rating, Lambsquarters: 65
[18]; Postemergence, 31 g ai/ha
  Lambsquarters plant response rating: 70
[18]; Postemergence, 125 g ai/ha
  Lambsquarters plant response rating: 95
[18]; Postemergence, 250 g ai/ha
  Lambsquarters plant response rating: 100
[18]; postemergence, 62 g ai/ha
  Lambsquarters plant response rating: 75
[19]; [21]
  Plant response rating (scale 0 to 100), Bluegrass: 0
[19]; 31 g ai/ha
  Plant response rating, Bluegrass: 0
[19]; 62 g ai/ha
  Plant response rating, Bluegrass: 5
[19]; 125 g ai/ha
  Plant response rating, Bluegrass: 55
[19]; 250 g ai/ha
  Plant response rating, Bluegrass: 100
[20]; [21]
  Plant response rating (scale 0 to 100), Deadnettle: 0
[20]; 31 g ai/ha
  Plant response rating, Deadnettle: 50
[20]; 62 g ai/ha
  Plant response rating, Deadnettle: 100
[20]; 125 g ai/ha
  Plant response rating, Deadnettle: 100
[20]; 250 g ai/ha
  Plant response rating, Deadnettle: 100
